The text below walks through data of patent US20070149456A1, “Epithelial sodium channel inhibiting agents and uses therefor” (University of Pittsburgh, priority 2005, published 2007).

Where two headings read alike, the source gives them in different places.

The target in the test is T1, mouse ENaC (Mus musculus, UniProt Q61180+Q9WU38+Q9WU39, DEL206-231).
T1 construct: expressed in transfected cells; host or cells: Xenopus laevis oocytes (cRNA injection)
T1 sequence (Q61180 with tags, fused parts or gaps DEL206-231): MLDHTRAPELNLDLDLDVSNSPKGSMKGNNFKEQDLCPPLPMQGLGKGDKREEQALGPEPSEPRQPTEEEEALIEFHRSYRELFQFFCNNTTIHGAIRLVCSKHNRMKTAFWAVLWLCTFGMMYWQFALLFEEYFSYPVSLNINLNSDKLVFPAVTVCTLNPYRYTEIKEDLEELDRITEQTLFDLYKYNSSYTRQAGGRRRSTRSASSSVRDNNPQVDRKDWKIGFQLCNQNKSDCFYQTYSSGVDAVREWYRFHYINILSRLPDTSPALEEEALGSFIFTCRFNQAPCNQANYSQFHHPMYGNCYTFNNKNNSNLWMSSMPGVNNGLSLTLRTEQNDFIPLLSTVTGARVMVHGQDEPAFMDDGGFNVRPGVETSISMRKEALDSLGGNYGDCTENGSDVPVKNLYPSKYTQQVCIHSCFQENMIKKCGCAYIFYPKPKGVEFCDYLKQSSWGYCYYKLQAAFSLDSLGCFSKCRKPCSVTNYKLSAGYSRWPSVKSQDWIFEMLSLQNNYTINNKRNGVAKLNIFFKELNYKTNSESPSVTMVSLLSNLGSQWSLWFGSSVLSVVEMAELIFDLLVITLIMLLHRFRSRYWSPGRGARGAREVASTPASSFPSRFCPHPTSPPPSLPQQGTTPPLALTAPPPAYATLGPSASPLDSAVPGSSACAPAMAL
T1 sequence (Q9WU38 1-638): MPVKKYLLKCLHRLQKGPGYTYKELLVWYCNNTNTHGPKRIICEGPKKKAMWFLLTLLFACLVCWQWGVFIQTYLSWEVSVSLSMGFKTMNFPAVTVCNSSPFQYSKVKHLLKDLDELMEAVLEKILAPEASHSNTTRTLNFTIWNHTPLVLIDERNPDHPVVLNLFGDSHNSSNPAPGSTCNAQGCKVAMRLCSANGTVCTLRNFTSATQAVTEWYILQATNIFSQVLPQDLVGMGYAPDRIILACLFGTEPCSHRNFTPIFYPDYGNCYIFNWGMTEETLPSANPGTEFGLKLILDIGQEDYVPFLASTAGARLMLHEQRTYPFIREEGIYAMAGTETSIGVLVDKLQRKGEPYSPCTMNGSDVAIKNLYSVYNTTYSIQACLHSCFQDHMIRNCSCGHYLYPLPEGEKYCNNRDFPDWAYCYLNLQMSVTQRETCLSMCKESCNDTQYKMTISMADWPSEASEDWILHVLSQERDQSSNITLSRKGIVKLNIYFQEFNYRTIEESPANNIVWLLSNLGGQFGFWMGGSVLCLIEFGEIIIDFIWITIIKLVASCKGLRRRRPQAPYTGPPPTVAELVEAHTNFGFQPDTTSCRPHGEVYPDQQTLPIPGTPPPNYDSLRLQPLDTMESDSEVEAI
T1 sequence (Q9WU39 1-655): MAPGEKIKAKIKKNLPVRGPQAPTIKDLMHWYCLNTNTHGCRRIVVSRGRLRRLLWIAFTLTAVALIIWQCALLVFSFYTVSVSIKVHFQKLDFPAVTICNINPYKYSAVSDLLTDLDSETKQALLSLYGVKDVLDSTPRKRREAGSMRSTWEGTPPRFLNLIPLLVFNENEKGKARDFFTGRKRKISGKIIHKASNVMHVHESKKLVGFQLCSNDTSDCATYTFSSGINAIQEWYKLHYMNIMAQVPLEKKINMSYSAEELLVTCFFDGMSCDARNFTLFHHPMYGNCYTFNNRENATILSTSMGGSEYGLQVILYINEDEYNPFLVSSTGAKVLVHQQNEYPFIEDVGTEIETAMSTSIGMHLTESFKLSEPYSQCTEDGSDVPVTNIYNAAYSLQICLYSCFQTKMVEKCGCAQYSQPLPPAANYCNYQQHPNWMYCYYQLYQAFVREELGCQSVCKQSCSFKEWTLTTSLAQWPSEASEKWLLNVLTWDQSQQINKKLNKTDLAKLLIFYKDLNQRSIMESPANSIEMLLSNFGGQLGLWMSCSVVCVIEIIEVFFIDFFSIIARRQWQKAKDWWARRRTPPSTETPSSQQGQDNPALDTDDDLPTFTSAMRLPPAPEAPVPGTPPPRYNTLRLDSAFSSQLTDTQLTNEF
The experiment in a line: Two-electrode voltage clamp, amiloride-sensitive whole cell Na+ current in Xenopus oocytes expressing wild-type αβγ ENaC. The format is cell-based. The source says:
Oocyte Expression—cRNAs for α, β, γ mouse ENaC (wild-type and mutant) subunits and mouse prostasin were synthesized with T3 or T7 m-Message mMachineTM (Ambion, Austin, Tex.). Subunits carrying furin cleavage consensus site mutations and the corresponding wild-type subunits have amino-terminal HA and carboxyl-terminal V5 tags (Hughey, R. P., Bruns, J. B., Kinlough, C. L., Harkleroad, K. L., Tong, Q., Carattino, M. D., Johnson, J. P., Stockand, J. D., and Kleyman, T. R. (2004) J. Biol. Chem. 279, 18111-18114 18). Stage V-VI Xenopus laevis oocytes were pretreated with 1.5 mg/ml of type IV collagenase and injected with 0.5-2 ng of cRNA/subunit. Injected oocytes were maintained as previously reported (Carattino, M. D., Hill, W. G., and Kleyman, T. R. (2003), Arachidonic Acid Regulates Surface Expression of Epithelial Sodium Channels, J Biol. Chem. 278, 36202-36213 29).
Two-electrode Voltage Clamp—Two-electrode voltage clamp (TEV) was performed as previously described (Carattino, M. D., Hill, W. G., and Kleyman, T. R. (2003) J Biol. Chem. 278, 36202-36213 29). The extracellular solution (TEV solution) was (in mM): 110 NaCl, 2 KCl, 1.54 CaCl2, 10 HEPES, pH 7.4, or otherwise as indicated. […] Experiments with oocytes co-expressing ENaC and prostasin and the corresponding controls were performed in the presence of aprotinin (1 μM) to impede any potential degradation of α-26 by prostasin.
Data and Statistical Analyses—and mean time of inhibition are expressed as the mean with a 95% confidence interval (CI); otherwise, data were expressed as the mean ±S.E. (n), where “n” equals the number of independent experiments analyzed. IC50 was estimated from normalized currents plotted as a function of the peptide concentration fitted, as shown in Equation 1 y=t/(1+10^(logX−log/C50)) (Eq. 1) where y is the response variable, X is the concentration of peptide, and IC50 is the concentration of peptide that provokes a response half way between the baseline (t) and maximum response. […] Results
(In general: Two-electrode voltage clamp holds a large cell at a set potential and records current.)

Turning to “Ac-DLRGALPHPLQRLRTPPPPNPARSAR-NH2 [α-26]”, the Ki (usually a measure of affinity in units of concentration, obtained from inhibition or displacement) was roughly 3000 nM. Moreover, for the setting “1 μM α-26”, the “time required to achieve half maximal inhibition” value is on record as 42 s. Moreover, the IC50 (as a rule, the concentration at which inhibition is half-maximal) (amiloride-sensitive current, 3 min perfusion with peptide (FIG. 3A), read-out: IC50, inhibition of wild-type αβγ) was determined as 2800 nM. Besides, the IC50 (holding potential −20 mV, read-out: IC50 at holding potential −20 mV) stood at 2900 nM. Also, the IC50 (holding potential −100 mV, read-out: IC50 at holding potential −100 mV) is 2900 nM. In addition, the reversibility of block result (α-26 1 μM, washout (FIG. 3D)) is “reversible inhibitor”.
